Experimental data as given in the OPERA property sets (Mansouri et al. 2018).

Settings: for log10 BCF / log10 biotransformation half-life (days): fish

c1ccc(C2CC2)cc1
boiling point: 174 °C | melting point: -31 °C

c1ccc2c(N=Nc3cccc4ccccc34)cccc2c1
melting point: 190 °C

C=C(C)C(N)=O
log10 vapour pressure (mmHg): -1.07 | melting point: 110 °C

CO[Si](CCCN=C(N(C)C)N(C)C)(OC)OC
ready biodegradability: not readily biodegradable

O=C1NN(c2ccccc2)C(=O)C1c1ccccc1 (configuration not stated)
melting point: 234 °C

C[C@]12CCC(=O)C=C1CC[C@@H]1[C@@H]2[C@@H](O)C[C@@]2(C)[C@H]1CC[C@]2(O)C(=O)CO
melting point: 218 °C

Fc1ccc(Cl)cc1
boiling point: 130 °C | melting point: -26.8 °C

CCOC(=O)C(Cl)(Cl)Cl
boiling point: 168 °C | log10 vapour pressure (mmHg): 0.581

COc1cc(OC)c2ccc(=O)oc2c1
melting point: 149 °C

c1ccc(C2=N[C@H](c3ccccc3)[C@@H](c3ccccc3)N2)cc1
melting point: 134 °C

CN
boiling point: -6.3 °C | log10 Henry constant (atm·m³/mol): -4.95 | log10 Koa: 1.9 | log10 vapour pressure (mmHg): 3.42 | ready biodegradability: readily biodegradable

CCOC(=O)C(C)(C)O
boiling point: 150 °C

COc1ccc(C=CC(=O)c2ccccc2)cc1
melting point: 79 °C

CN1C2CCC1CC(=O)C2
boiling point: 227 °C | melting point: 43 °C

CCCCOCc1ccccc1
boiling point: 223 °C

COS(=O)(=O)[O-].C[n+]1c2ccccc2nc2ccccc21
melting point: 157 °C

OCCCCCCCCCCCCCCO
melting point: 85.8 °C

CCCC(CC)CCC
boiling point: 141 °C

N#Cc1ccncc1
boiling point: 214 °C | log10 Henry constant (atm·m³/mol): -6.03 | melting point: 79 °C

Cc1cccc(C)c1OCC(C)N (configuration not stated)
melting point: 204 °C

CCCCCC#CCO
melting point: -18 °C

C1CCC2=NCCCN2CC1
ready biodegradability: not readily biodegradable

CC12CC1(C)C(=O)N(c1cc(Cl)cc(Cl)c1)C2=O (configuration not stated)
log10 Koc (L/kg): 3.18 | melting point: 166 °C

CN1CC(C(=O)O)CC1=O (configuration not stated)
melting point: 152 °C

CN(C)C(=O)OC1N=C(c2ccccc2)c2cc(Cl)ccc2N(C)C1=O (configuration not stated)
melting point: 174 °C

CCCCCCCCCCCC(O)CC (configuration not stated)
melting point: 31.5 °C

CC(=O)Oc1ccccc1[N+](=O)[O-]
log10 vapour pressure (mmHg): -2.66 | melting point: 40.5 °C

OC1c2ccccc2CCc2ccccc21
melting point: 92 °C

O=C(Cl)c1ccc(F)cc1
melting point: 9 °C

CC(Br)(Br)CBr
boiling point: 190 °C

CCCCCCCCCCCCCCCC(CCCC)c1ccccc1 (configuration not stated)
melting point: 30.2 °C

CC(=O)Nc1ccc(S(N)(=O)=O)cc1
melting point: 220 °C

Nn1cnnc1
melting point: 82.5 °C

CC(C)CC(C)Cl (configuration not stated)
boiling point: 113 °C

CCC(Nc1ncnc(C)c1Cl)c1ccc(OC(F)F)cc1 (configuration not stated)
log10 vapour pressure (mmHg): -5.62 | melting point: 47.3 °C

COc1cc(OC)nc(Sc2cccc(Cl)c2C(=O)[O-])n1.[Na+]
melting point: 248 °C

N#Cc1cccc(C=O)c1
boiling point: 210 °C | melting point: 76.5 °C

CC(C)(C)CC1(C)CO1 (configuration not stated)
boiling point: 141 °C | melting point: -64 °C

C=CC[Si](Cl)(Cl)Cl
boiling point: 118 °C | log10 vapour pressure (mmHg): 1.25 | melting point: 35 °C

CCc1ccc(O)cc1
boiling point: 218 °C | log10 Henry constant (atm·m³/mol): -6.11 | log10 vapour pressure (mmHg): -1.43 | melting point: 45 °C | ready biodegradability: readily biodegradable

O=C(Cl)c1ccc(C(=O)Cl)cc1
boiling point: 258 °C | melting point: 83.5 °C

CC1CCC(=O)CC1
boiling point: 170 °C | log10 vapour pressure (mmHg): 0.176 | melting point: -40.6 °C

Nc1ccc(S(=O)(=O)Nc2cnc3ccccc3n2)cc1
melting point: 248 °C

Clc1ccc(Cl)c2c(Cl)ccc(Cl)c12
log10 Koa: 8.45

IC(I)(I)I
melting point: 171 °C

CCCCCCCCCCCCCCCCCC(C)=O
melting point: 57 °C

Cc1ccnc2ccccc12
boiling point: 262 °C | log10 vapour pressure (mmHg): -2.2 | melting point: 9.5 °C

CC(C)(C)c1cc(C=O)cc(C(C)(C)C)c1O
melting point: 186 °C

Cc1ccccc1
boiling point: 111 °C | log10 Henry constant (atm·m³/mol): -2.18 | log10 biodegradation half-life (days): 0.301 | log10 vapour pressure (mmHg): 1.45 | melting point: -94.9 °C | ready biodegradability: readily biodegradable | log10 BCF: 0.92

C[Si](C)(Cl)C(Cl)Cl
boiling point: 149 °C | melting point: -48 °C

Nc1cc(Cl)ccc1O
melting point: 140 °C

Brc1cccc(Oc2ccccc2)c1
log10 Koa: 7.36

Clc1cc(-c2c(Cl)cccc2Cl)c(Cl)c(Cl)c1Cl
log10 Henry constant (atm·m³/mol): -4.41

O=C(O)C(F)(F)C(F)F
boiling point: 134 °C

CC(=O)[C@H]1CC[C@H]2[C@@H]3CCC4=CC(=O)CC[C@]4(C)[C@H]3CC[C@]12C
melting point: 121 °C

COc1ccc(Br)cc1
boiling point: 215 °C | log10 vapour pressure (mmHg): -0.692 | melting point: 13.5 °C

CCCCCCCCCCCCCC(=O)OC(=O)CCCCCCCCCCCCC
melting point: 53.4 °C

S=C=NC1CCCCC1
boiling point: 220 °C

CCCC(N)C(=O)O (racemic)
melting point: 305 °C

CCn1ccc2ccccc21
boiling point: 252 °C | melting point: 105 °C

CCCCCCCCCCCCCCCC=O
melting point: 35 °C

Cc1cccc2c(C)cccc12
boiling point: 265 °C | log10 Henry constant (atm·m³/mol): -3.46 | log10 vapour pressure (mmHg): -2.3 | melting point: 82 °C

N#CCCNc1ccccc1
melting point: 52.5 °C

Clc1cc(Cl)c(-c2ccc(Cl)c(Cl)c2Cl)cc1Cl
log10 Henry constant (atm·m³/mol): -4.68 | log10 Koa: 9.8 | log10 Koc (L/kg): 5.93 | log10 vapour pressure (mmHg): -5.42 | log10 biotransformation half-life (days): 2.59

Brc1cccc(Br)c1Oc1ccccc1
log10 Koa: 8.12

CC(=O)CCc1ccccc1
boiling point: 234 °C | melting point: -13 °C | ready biodegradability: not readily biodegradable

Nc1ccc2c(c1)C(=O)c1ccccc1C2=O
log10 vapour pressure (mmHg): -10.3 | melting point: 304 °C | ready biodegradability: not readily biodegradable | log10 BCF: 1.51 | log10 biotransformation half-life (days): -1.06

C=COc1ccccc1
boiling point: 156 °C

CCCCCCC(=O)OCC
boiling point: 187 °C | log10 Henry constant (atm·m³/mol): -3.3 | log10 Koc (L/kg): 2.61 | log10 vapour pressure (mmHg): -0.168 | melting point: -66.1 °C

CC(CCl)CCCl (configuration not stated)
boiling point: 168 °C

Brc1ccc2c3c(cccc13)CC2
boiling point: 335 °C | melting point: 52 °C

O=C=Nc1ccc(Cl)cc1
boiling point: 204 °C | log10 vapour pressure (mmHg): -0.712 | melting point: 30 °C

CCc1ccc[nH]1
boiling point: 164 °C

CN1CCN(CCCN2c3ccccc3Sc3ccccc32)CC1
melting point: 52 °C

CCOP(=O)(OCC)SCc1ccccc1
log10 Koc (L/kg): 2.4

CC(=O)Oc1ccccc1C
boiling point: 208 °C

CCC=C(C)CC
boiling point: 112 °C | log10 vapour pressure (mmHg): 1.91

CC(C)(O)C(C)(C)O
melting point: 43 °C

CC(C)CCOC(=O)C(C)O (configuration not stated)
boiling point: 202 °C

NC1CCCCCCC1
boiling point: 190 °C | melting point: -48 °C

CNC(=O)NC
boiling point: 269 °C | melting point: 108 °C | ready biodegradability: not readily biodegradable

Oc1cccc2c1CCCC2
boiling point: 266 °C | melting point: 70 °C

O=C(O)CN(CCO)CC(=O)O
melting point: 178 °C

N#Cc1ccccc1CCl
boiling point: 252 °C | melting point: 61 °C

COC(=O)/C=C(\C)OP(=O)(OC)OC
log10 vapour pressure (mmHg): -3.91 | melting point: 21 °C

CC(C)(C#N)O[C@@H]1O[C@H](CO)[C@@H](O)[C@H](O)[C@H]1O
melting point: 145 °C

O=C(c1ccc(Br)cc1)c1ccc(Br)cc1
boiling point: 395 °C | melting point: 177 °C

CC(C)CCC(CO)C(C)C (configuration not stated)
boiling point: 211 °C

C=CC#CCCC
boiling point: 110 °C

COc1ccc(N=C=S)cc1
boiling point: 280 °C | melting point: 18 °C

COO
log10 Henry constant (atm·m³/mol): -5.34

CNC(=C[N+](=O)[O-])NCCSCc1csc(CN(C)C)n1
melting point: 131 °C

O=[N+]([O-])c1cc(C(F)(F)F)c(Cl)c([N+](=O)[O-])c1Nc1ncc(C(F)(F)F)cc1Cl
melting point: 113 °C

COC(C)CCOC(C)=O (configuration not stated)
ready biodegradability: readily biodegradable

CCCC(C)CCN (configuration not stated)
boiling point: 149 °C

CCCCCCCCCCCCCCCCC
boiling point: 302 °C | log10 biodegradation half-life (days): 1.3 | log10 vapour pressure (mmHg): -3.64 | melting point: 22 °C | ready biodegradability: readily biodegradable

O=C(OCC(=O)N1CCC(O)CC1)c1ccccc1
melting point: 122 °C

CCCCC=CC(=O)O
boiling point: 226 °C | melting point: -19 °C

C#CC(O)(C=CCl)CC (configuration not stated)
boiling point: 174 °C | log10 vapour pressure (mmHg): -1

Oc1ccc(C(c2ccc(O)cc2)(C(F)(F)F)C(F)(F)F)cc1
melting point: 162 °C

CCCCC(C)C(C)C (configuration not stated)
boiling point: 140 °C | melting point: -116 °C | log10 biotransformation half-life (days): 1.28

O=C(O)C(Br)(Br)Br
log10 Henry constant (atm·m³/mol): -8.48 | melting point: 132 °C

Clc1c(Cl)c(Cl)c2c(Cl)c(Cl)c(Cl)c(Cl)c2c1Cl
log10 Koa: 11.1 | log10 Koc (L/kg): 5.89 | log10 vapour pressure (mmHg): -7.96 | melting point: 198 °C | log10 BCF: 2.58 | log10 biotransformation half-life (days): 1.62

CC(C)c1ccccc1
boiling point: 152 °C | log10 Henry constant (atm·m³/mol): -1.94 | log10 Koa: 3.98 | log10 biodegradation half-life (days): 1.18 | log10 vapour pressure (mmHg): 0.653 | melting point: -96 °C | ready biodegradability: readily biodegradable | log10 BCF: 1.55

CCC(CC)c1ccncc1
boiling point: 217 °C | melting point: 126 °C

CCCCc1ccc2ccccc2c1
boiling point: 292 °C | melting point: -5 °C

C#CCCCCCCC(=O)O
melting point: 19 °C

CCNc1nc(Cl)nc(NC(C)(C)C#N)n1
log10 Koc (L/kg): 2.28 | log10 vapour pressure (mmHg): -6.86 | melting point: 168 °C

Clc1ccc(Cl)c(Cl)c1Cl
boiling point: 254 °C | log10 Henry constant (atm·m³/mol): -3.12 | log10 Koa: 5.64 | log10 Koc (L/kg): 3.84 | log10 vapour pressure (mmHg): -1.41 | melting point: 47.5 °C | ready biodegradability: not readily biodegradable | log10 BCF: 3.38 | log10 biotransformation half-life (days): 0.69

CN(C)C(=S)N(C)C
boiling point: 245 °C | melting point: 79.3 °C

CCC(C)OC(C)CC (configuration not stated)
log10 vapour pressure (mmHg): 1.21 | melting point: -100 °C

C=CCC1CCCC1
boiling point: 125 °C | melting point: -111 °C

CC(=O)Nc1cccc(C)c1
boiling point: 303 °C | log10 Koc (L/kg): 1.45 | melting point: 65.5 °C

C1COCOC1
boiling point: 106 °C | melting point: -45 °C

c1ccc(Cc2ccccc2)cc1
boiling point: 265 °C | log10 vapour pressure (mmHg): -2.09 | melting point: 25.2 °C | ready biodegradability: not readily biodegradable | log10 BCF: 2.94

FC(F)(F)c1ccc(Cl)c(Cl)c1
boiling point: 174 °C | log10 vapour pressure (mmHg): 0.372 | melting point: -12.5 °C | log10 BCF: 3.18 | log10 biotransformation half-life (days): 1.52

O=C(O)c1cc([N+](=O)[O-])ccc1O
melting point: 230 °C

CCCC(=O)Nc1ccccc1
log10 Koc (L/kg): 1.71 | melting point: 97 °C

C1CN2CCC1CC2
log10 vapour pressure (mmHg): 0.282 | melting point: 158 °C

C=C(C)C1CC1
boiling point: 70 °C

Cn1ccc(=O)c2ccccc21
melting point: 152 °C

O=C(CCCl)NCc1ccccc1
melting point: 94 °C

O=C1NCCN1c1ncc([N+](=O)[O-])s1
melting point: 261 °C

CN1CCC(=C2c3ccccc3C=Cc3ccccc32)CC1
melting point: 113 °C

O=C(O)CCSCCC(=O)O
melting point: 129 °C | ready biodegradability: readily biodegradable

CC(=O)N[C@@H](CS)C(=O)O
melting point: 110 °C

CCOC(=O)C1CCC1
boiling point: 159 °C

Cc1cc(C)c(Cl)c(C)c1
boiling point: 205 °C

CC(C)CCS
boiling point: 120 °C | log10 vapour pressure (mmHg): 1.31

N#Cc1cccc(Cl)c1
melting point: 41 °C
